Measured values published in patent US20160022710A1, “PRENATAL AND LACTATION SUPPLEMENTS TO ENHANCE CENTRAL NERVOUS SYSTEM DEVELOPMENT OF OFFSPRING” (ABBOTT LABORATORIES, priority 2013, published 2016).

Assay: carotenoids in neonatal brain samples
Settings: neonatal brain samples studied by the Applicants

SMILES | carotenoid occurrence in neonatal brain samples
CC(C)=CCC/C(C)=C/C=C/C(C)=C/C=C/C(C)=C/C=C/C=C(C)/C=C/C=C(C)/C=C/C=C(\C)CCC=C(C)C [lycopene] | very few neonatal brain samples are found to contain detectable levels
CC1=CC(O)CC(C)(C)[C@H]1/C=C/C(C)=C/C=C/C(C)=C/C=C/C=C(C)/C=C/C=C(C)/C=C/C1=C(C)C[C@@H](O)CC1(C)C (stereo partly drawn) [trans-lutein] | predominant carotenoid in the majority of neonatal brain samples
